Entries after “also recorded” stand apart in the source; their conditions may differ. Where two headings read alike, the source gives them in different places.
Experiments:
[1] = system: Na^+ channel of the mammalian brain; details: purified polypeptides in phospholipid vesicles; cited from earlier work
[2] = system: C-fibers of rabbit vagus nerve; test: Extracellular recording of compound action potentials (APc), desheathed vagus nerve, C-fibers; parameters: species or system New Zealand white rabbit; details: for inhibition at 0.5 µM: 1 h, mean ± SEM; for inhibition at 0.5 µM / activity at 0.5 µM: 0.5 μM VTD; for activity at 0.5 µM: read-out: Amplitude of single APc elevation relative to amplitude at beginning of VTD exposure
Description: (§1) Adult male New Zealand white rabbits (3±0.5 kg) were pretreated intramuscularly with a mixture of ketamine (200 mg), xylazine (20 mg) and atropine (0.4 mg) for sedation. Ten minutes after this treatment, the animals were anesthetized with diethyl ether. After cessation of respiration, a longitudinal skin incision was made, and the cervical portion of both vagus nerves was dissected. The vagus nerves were temporarily stored at room temperature (22° C.) in a beaker containing modified HEPES Liley (HL) solution stirred constantly by aeration with a mixture of 95% oxygen and 5% carbon dioxide.
(§2) The modified HL solution used for bathing the nerve and subsequent drug perfusion consisted of (in mM): NaCl, 118.0; KCl, 5.0; CaCl2 2H2 0, 2.0; MgCl2 6H2 0, 1.0; α-D(+)-glucose, 11.0; NaHC03, 25.0; and N-2-hydroxy-ethylpiperazine-N-2-ethanesulfonic acid (HEPES) buffer, 5.0 mM. The pH was adjusted to 7.4±0.05 by addition of 1 N NaOH. The perfusion solution was bubbled with a gas mixture of 95% oxygen and 5% carbon dioxide at a vigorous rate just before flowing onto the nerve. The pH was stabilized by the HEPES buffer and maintained at 7.4.
(§3) VTD free base (no. V-5754, lot 58F-7828, Sigma, St. Louis, Mo.) was stored in a desiccator below 0° C. and was used to prepare a 2 mM stock solution in dimethyl sulfoxide [DMSO], Fisher Scientific, lot 861316), which also was stored at below 0° C. VTD, a steroidal alkaloid (FIG. 2A) that is produced by certain lilies, has a solubility limited to approximately 10^-3 M in aqueous slat solutions [Kupchan and By, "The Veratrum Group," in Alkaloids, Vol. 10, Manske, R.H.F. (ed.), New York, Academic Press (1968), pp. 193-285]. The stock VTD solution was diluted to final concentrations of 0.2-10 μM by the addition of HL. The maximum equivalent content of DMSO is 0.5%, and in three control experiments we detected no change in electrophysiologic behavior with 1% DMSO.
(§4) The nerves were cleaned and desheathed by microdissection before mounting in an airtight chamber (FIG. 2B) [Gissen et al., Anesthesiology 53:467-474 (1980)]. Petroleum jelly (White Petrolatum, Denison Laboratories) seals separated a central, 11-mm length of the nerve from the lateral pools, used for stimulating and recording with electrodes made of platinum wire. The central section of the chamber (volume 0.25 ml) was perfused with HL solution at 0.5 ml.min.^-1. The lateral pools containing the moistened ends of the nerves adsorbed to the electrodes were filled with paraffin oil. The APc s were propagated over 21 mm, from the stimulating to the recording electrodes, with the proximal recording electrodc located 4.5 mm from the edge of the central, drug exposure chamber. Thus, measured APc s were conducted in nerve exposed to drug for half of the conduction pathway, and had been conducting through drug-free medium over a distance containing at least two or three nodes of Ranvier (in the fastest-conducting fibers), before reaching the recording electrodes.
(§5) The signal from the nerve was amplified 50 times (model AK 475 operational amplifier, Metametrics, Carlisle, Mass.) and passed to the oscilloscope preamplifiers (model 5A 22N, Tektronix). The preparation was not considered acceptable unless the APc signals from the nerve exceeded 1.5 mV for A-fibers, 0.5 mV for B-fibers, and 0.3 mV for C-fibers.
(§6) Each nerve was exposed to only one VTD concentration, and each concentration was tested in four or five separate nerves, except in tie sheathed nerves, for which only two nerves were used. The temperature was 20°-22° C.
The standard protocol used for testing the action of VTD was to record the APc elevations in control HL solution for 30-60 min. before adding VTD; for 60-75 min. during VTD application; and for 60-75 min. after replacement with VTD-free HL. […]

[3] = on average; cited from earlier work
rat sciatic nerve = test: Motor block of rat sciatic nerve in vivo (toe curling and/or foot dragging); parameters: species or system Male Sprague-Dawley rats
angiotensin II receptors = details: reported by Ball et al.; cited from earlier work
rabbit vagus nerve = test: Extracellular recording of compound action potentials (APc), vagus nerve as a whole; parameters: species or system New Zealand white rabbit
Description: as §1, §2, §3
as §4, with “The APc s were propagated over 21 mm, from the stimulating to the recording electrodes, with the proximal recording electrodc located 4.5 mm from the edge of the central, drug exposure chamber.” left out, “electrodes. […]” for “electrodes.”

[4] = system: vagus nerve with intact sheath (C-fibers); test: Extracellular recordings from sheathed nerves; parameters: species or system rabbit
Description: as §4, §5, §6
We tested the ability of VTD to penetrate the tissues ensheathing the vagus nerve. Nerves with intact sheaths were arranged in the same extracellular recording chamber as had been used for the desheathed nerve studies just described. Because of the electrical isolating qualities of the sheath, stimulus requirements are greater and the recorded APC s are smaller, but have the same latency from stimulation as in the desheathed nerves. […] However, the onset of the effect was much slower and the VTD dose requirement much higher: 2 μM VTD took approximately 30 min. to affect the C-fibers detectably, and 10 μM took approximately 15 min. This is expected in a lipophilic base for which more than 90%, on average, of the drug molecules are ionized [Kupchan and By, "The Veratrum Group," in Alkaloids, Vol. 10, Manske, R.H.F. (ed.), New York, Academic Press (1968), pp. 193-285].

In the case of COc1ccc(C(=O)OC2CCC3(C)C4CCC5C6(O)CC(O)C7(O)C(CN8CC(C)CCC8C7(C)O)C6(O)CC53OC24O)cc1OC (stereo not drawn) [VTD, veratridine], the “Sodium flux into vesicles in response” value [1] is given as “sodium flux into these vesicles occurs”, the “Use-dependent reduction of APc by VTD, C-fibers” value ([2]; 0-2.0 μM (FIG. 7C), at relatively low frequencies) is given as “diminished most; also recorded: greatest for the C-fiber component” and the “Use-dependent inhibition and slowing of C-fiber APc” value ([2]; 2 μM VTD, 5 Hz, second through tenth APc, 15-20 min. exposure) is given as “slowed conduction and reduced amplitude”. The “Single-stimulus APc after VTD compared with no-VTD controls” value ([2]; C-fibers, 0.5 μM, 60 min. in VTD, P<0.005) was “significant enhancement”, the “Longer latency of the second wave vs the first wave” value ([2]; C-fibers, 2 μM VTD, 5 Hz (FIG. 6B)) was “about 20%” and the “Reversal of use-dependent depression by washing” value ([2]; C-fibers, VTD-free HL wash) was “partial reversal”. The “Recovery time of APc after stimulation ceased” value ([2]; C-fibers, sometimes as long as, depending on VTD concentration) was 1 to 2 min, the inhibition at 0.5 µM ([2]; Oryctolagus cuniculus, C-fibers, 10 Hz, after 60 min. in VTD, P < 0.001 vs control, read-out: Percent inhibition of the tenth APc in a train compared to the first, VTD) was 54.6 ± 3.8% and the inhibition at 0.5 µM ([2]; Oryctolagus cuniculus, C-fibers, 10 Hz, after 60 min. wash, read-out: Percent inhibition of the tenth APc in a train compared to the first, HL (Wash)) was 34.6 ± 3.8%. It also gave an activity at 0.5 µM ([2]; Oryctolagus cuniculus, C-fibers, during VTD exposure) of 111 ± 5%, an activity at 0.5 µM ([2]; Oryctolagus cuniculus, C-fibers, wash period) of 133 ± 15% and an inhibition at 0.2 µM ([2]; Oryctolagus cuniculus, 0.2 μM VTD, 10 Hz, after about 1 h of wash-out, read-out: C-fiber use-dependent inhibition after VTD wash-out) of 22%. For the same compound, the “Fraction of drug molecules ionized” value [3] was “more than 90%”, the “Duration of motor block (summary)” value (rat sciatic nerve; VTD alone, 0.2-0.7 mM, approximately) was 100 to 300 min and the “fraction block, MOTOR” value (rat sciatic nerve; [VTD] 0.2 mM, 0.1 ml) was 8/10. For the same compound, the “onset, MOTOR” value (rat sciatic nerve; [VTD] 0.2 mM, 0.1 ml, mean ± SEM) was 13 ± 2 min, the “fraction block, MOTOR” value (rat sciatic nerve; [VTD] 0.7 mM, 0.1 ml) was 5/10 and the “Duration of nerve block compared with bupivacaine and lidocaine” value (rat sciatic nerve; rat sciatic nerve) was “longer duration than both”. The “Inhibition of angiotensin II receptors” value (angiotensin II receptors) was “selective inhibitor of angiotensin II receptors”, the “Fiber preference of impulse inhibition” value (rabbit vagus nerve; VTD alone, use-dependent) was “highly preferential for C-fibers” and the “Time to recover from VTD-induced use-dependent effects” value (rabbit vagus nerve; after termination of rapid stimulation) was “tens of seconds”. The “Effect of VTD added to a nerve during recovery from bupivacaine” value (rabbit vagus nerve; residual bupivacaine block) was “potentiated rather than antagonized the residual block”, the “Effect on impulses conducted in response to a single stimulus” value (rabbit vagus nerve; single stimuli, 0.5 μM) was “only a small effect; also recorded: unaffected” and the “Time to affect the C-fibers detectably, sheathed nerve” value ([4]; 2 μM VTD) was “approximately 30 min”. The “Time to affect the C-fibers detectably, sheathed nerve” value ([4]; 10 μM VTD) was “approximately 15 min”, the “Use-dependent reduction as % of that achieved at steady state on a desheathed nerve by 0.2 μm VTD” value ([4]; 10 Hz, 60-min. exposure to 10 μm VTD) was “approximately 30%” and the “C-fiber elevation / APc inhibition in sheathed nerves” value ([4]; intact sheath) was “inhibited selectively; also recorded: progressively inhibited in a use-dependent fashion”. The “Reduction of rate of penetration into the nerve by the sheath” value ([4]; sheathed vs desheathed nerve) was “at least 50 fold”, the “Rate of VTD action with intact nerve sheath” value ([4]; vs desheathed nerves) was “far less than in desheathed nerves” and the “Duration of steady-state effect in drug-free solution” value ([4]; wash-out period after 75 min. exposure, both nerves tested, up to) was “up to 3 h”.

From US5288723A, “A composition and a method of using veratridine and epinephrine as a local anesthetic” (priority 1991, dated 1994)
